Assay results as given in patent US20090305960A1, “Melanocortin Receptor-Specific Peptides for Treatment of Obesity / 669” (Palatin Technologies, Inc, priority 2008, published 2009).
“And” between values parts separate entries of the source, which are not always exact repeats. Identical values can stand only once. Like-named read-outs stand apart in the source and are kept apart here. *1 amine or outer side, *2 acyl side, *3 side chain or, on linkers, in order; H or OH if unused. Where a SMILES comes first, the peptide text is derived from it. Bridges are numbered along the chain shown (N, C = ends). [ ]: non-standard residue; d: D form. Ser(Bzl) = O-benzyl-L-serine, O=C([C@H](COCc1ccccc1)N[*:1])[*:2]; Orn = NCCC[C@H](N)C(=O)O

Assays:
hMC4-R [1] = target: T1, hMC4-R (Homo sapiens, UniProt P32245); test: Competitive binding assay using Eu-NDP-α-MSH, MC4-R; conditions: for selectivity for MC4-R (binding against MC1-R, MC3-R and MC4-R): in words
T1 construct: expressed in transfected cells; host or cells: HEK-293 (membrane homogenates)
Experimental: Competitive inhibition binding assays were performed using membrane homogenates prepared from HEK-293 cells that express recombinant hMC1-R, hMC3-R, hMC4-R, or hMC5-R. In the examples that follow, all MC1-R, MC3-R, MC4-R and MC5-R values are for human recombinant receptors. Assays were performed in 96 well GF/B Millipore multiscreen filtration plates (MAFB NOB10) pre-coated with 0.5% bovine serum albumin (Fraction V). Membrane homogenates were incubated with 0.1 nM [1^125]-NDP-α-MSH (Perkin Elmer) and increasing concentrations of test peptides of the present invention in buffer containing 25 mM HEPES buffer (pH 7.5) with 100 mM NaCl, 2 mM CaCl2, 2 mM MgCl2, 0.3 mM 1,10-phenanthroline, and 0.1% bovine serum albumin. After incubation for 90 minutes at 37° C., the assay mixture was filtered and the membranes washed with 1 mL of cold 1×PBS wash buffer per well. 35 μL of scintillation cocktail was added to each well and the plates counted on a Microbeta counter for 1 minute per well. Non-specific binding was measured by inhibition of binding of [I^125]-NDP-α-MSH in the presence of 1 μM NDP-α-MSH. Maximal specific binding (100%) was defined as the difference in radioactivity (cpm) bound to cell membranes in the absence and presence of 1 μM NDP-α-MSH. Radioactivity (cpm) obtained in the presence of test compounds was normalized with respect to 100% specific binding to determine the percent inhibition of [I^125]-NDP-α-MSH binding. Each assay was conducted in duplicate and actual mean values are described, with results less than 0% reported as 0%. Ki values for test peptides of the present invention were determined using Graph-Pad Prism® curve-fitting software.
(§1) Alternatively, a competitive inhibition binding assay was performed employing Eu-NDP-α-MSH (PerkinElmer Life Sciences catalog No. AD0225) with determination by time-resolved fluorometry (TRF) of the lanthanide chelate. In comparison studies with [I^125]-NDP-α-MSH, the same values, within experimental error ranges, were obtained for percent inhibition and Ki. Typically competition experiments to determine Ki values were conducted by incubating membrane homogenates prepared from HEK-293 cells that express recombinant hMC4-R with 9 different concentrations of test compounds of interest and 1 nM of Eu-NDP-α-MSH in a solution containing 25 mM HEPES buffer with 100 mM NaCl, 2 mM CaCl2, 2 mM MgCl2, 0.1% BSA, and 0.3 mM 1,10-phenanthroline. After incubation for 90 minutes at 37° C., the reaction was stopped by filtration over AcroWell 96-well filter plates (Pall Life Sciences). The filter plates were washed 4 times with 200 μL of ice-cold phosphate-buffered saline. DELFIA Enhancement solution (PerkinElmer Life Sciences) was added to each well. The plates were incubated on a shaker for 15 minutes and read at 340 nm excitation and 615 nm emission wavelengths. Each assay was conducted in duplicate and mean values were utilized. Ki values were determined by curve-fitting with Graph-Pad Prism® software using a one-site fixed-slope competition binding model.

[2] = Food intake and body weight change in rats; assay type: in vivo, rat; conditions: for food intake / rate of change in body weight: rat feeding studies, overall finding in words; for decrease in food consumption compared to control: rats
Experimental: Change in food intake and body weight was evaluated for selected peptides administered by intravenous (IV) or subcutaneous injection routes. Male Sprague-Dawley rats were obtained from Hilltop Lab Animals, Inc. (Scottsdale, Pa.) or other vendors. Animals were individually housed in conventional polystyrene hanging cages and maintained on a controlled 12 hour on/off light cycle. Water and pelleted food was provided ad libitum. The rats were dosed IV with vehicle or selected peptides (0.3 to 1.0 mg/kg), or dosed subcutaneously with vehicle or selected peptides (doses up to 30 mg/kg). The changes in body weight and food intake for the 24 hour period after dosing was determined. The changes in body weight and food intake for the 48 hour and 72 hour periods after dosing can also be measured to determine reversal of changes in body weight and food intake effects back to baseline levels.

[3] = Induction of penile erection in male rats; assay type: in vivo, rat; conditions: for increase in observed spontaneous erections: in words
Experimental: The ability of peptides of the present invention to induce penile erection (PE) in male rats were evaluated with selected peptides. Male Sprague-Dawley rats weighing 250-300 g were kept on a 12 hour on/off light cycle with food and water ad libitum. All behavioral studies were performed between 9 a.m. and 4 p.m. Groups of 6-8 rats were administered peptides at a variety of doses via an IV route. Immediately after treatment, rats were placed into individual polystyrene cages (27 cm long, 16 cm wide, and 25 cm high) for behavioral observation, typically by remote video monitoring. Rats are observed for one hour, and the number of yawns, grooming bouts and PEs are recorded in 10-minute bins.

hMC4-R [4] = target: T1, hMC4-R; test: Assay for agonist activity (cAMP accumulation in HEK-293 cells expressing hMC4-R); assay type: cell-based
Experimental: Accumulation of intracellular cAMP was examined as a measure of the ability of the peptides of the present invention to elicit a functional response in HEK-293 cells that express MC4-R. Confluent HEK-293 cells that express recombinant hMC4-R were detached from culture plates by incubation in enzyme-free cell dissociation buffer. Dispersed cells were suspended in Earle's Balanced Salt Solution containing 10 mM HEPES (pH 7.5), 1 mM MgCl2, 1 mM glutamine, 0.5% albumin and 0.3 mM 3-isobutyl-1-methyl-xanthine (IBMX), a phosphodiesterase inhibitor. The cells were plated in 96-well plates at a density of 0.5×10^5 cells per well and pre-incubated for 10 minutes. Cells were exposed for 15 minutes at 37° C. to peptides of the present invention dissolved in DMSO (final DMSO concentration of 1%) at a concentration range of 0.05-5000 nM in a total assay volume of 200 μL. NDP-α-MSH was used as the reference agonist. cAMP levels were determined by an HTRF® cAMP cell-based assay system from Cisbio Bioassays utilizing cryptate-labeled anti-cAMP and d2-labeled cAMP, with plates read on a Perkin-Elmer Victor plate reader at […]. Data analysis was performed by nonlinear regression analysis with Graph-Pad Prism® software. The maximum efficacies of the test peptides of the present invention were compared to that achieved by the reference melanocortin agonist NDP-α-MSH.

[5] = target: human melanocortin-4 receptor (recombinant hMC4-R) (human) (UniProt P32245); test: cell-based or functional assay
[6] = target: T2, human melanocortin-4 receptor (recombinant hMC4-R) (human, UniProt P32245 1-332); test: cell-based or functional assay
[7] = target: T3, human melanocortin-3 receptor (recombinant hMC3-R) (human, UniProt P41968 1-323); test: competitive binding vs labelled NDP-α-MSH, hMC3-R membranes
T3 construct: whole, on cells; Membrane homogenates of HEK-293 cells expressing the recombinant receptor

[8] = target: T2, human melanocortin-4 receptor …; test: competitive binding vs Eu-NDP-α-MSH, TRF, hMC4-R HEK-293 membranes
Experimental: as §1, with “[I¹²⁵]-NDP-α-MSH,” for “[I^125]-NDP-α-MSH,”, “Typically competition experiments to determine Ki values were conducted by incubating membrane homogenates prepared from HEK-293 cells that express recombinant hMC4-R with 9 different concentrations of test compounds of interest and 1 nM of Eu-NDP-α-MSH in a solution containing 25 mM HEPES buffer with 100 mM NaCl, 2 mM CaCl2, 2 mM MgCl2, 0.1% BSA, and 0.3 mM 1,10-phenanthroline.” left out
Peptides of the following structures were synthesized by the general methods described above, and except where indicated MC4-R Ki values for each peptide were determined in competitive binding assays using Eu-NDP-α-MSH as described in 7.2 above.

[9] = competitive binding using Eu-NDP-α-MSH, human recombinant receptor, read-out: MC4-R Ki
[10] = competitive studies using Eu-NDP-α-MSH / NDP-α-MSH, average of several studies, read-out: Ki value at MC4-R

T1 sequence (P32245 whole entry): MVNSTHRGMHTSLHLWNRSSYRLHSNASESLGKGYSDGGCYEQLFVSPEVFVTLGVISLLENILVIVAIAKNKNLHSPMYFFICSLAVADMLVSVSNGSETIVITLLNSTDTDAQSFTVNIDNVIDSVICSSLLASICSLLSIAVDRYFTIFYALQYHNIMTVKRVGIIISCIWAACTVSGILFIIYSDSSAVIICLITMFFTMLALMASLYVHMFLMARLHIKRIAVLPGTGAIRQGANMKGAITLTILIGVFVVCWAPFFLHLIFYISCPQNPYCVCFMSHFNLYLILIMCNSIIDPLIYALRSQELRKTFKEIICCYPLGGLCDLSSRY
T2 sequence (P32245 whole entry): as above
Chain of human melanocortin-4 receptor (recombinant hMC4-R) (human) (P32245 whole entry): as above
T3 sequence (P41968 whole entry): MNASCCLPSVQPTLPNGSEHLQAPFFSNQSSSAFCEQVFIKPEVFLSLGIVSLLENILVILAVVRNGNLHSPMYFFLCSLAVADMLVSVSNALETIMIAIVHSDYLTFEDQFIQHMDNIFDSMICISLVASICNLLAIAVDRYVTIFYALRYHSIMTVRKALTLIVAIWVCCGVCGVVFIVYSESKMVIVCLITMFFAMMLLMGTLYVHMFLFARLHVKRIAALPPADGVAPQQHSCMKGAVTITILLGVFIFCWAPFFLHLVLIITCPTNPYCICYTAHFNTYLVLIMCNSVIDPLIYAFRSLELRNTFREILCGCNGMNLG

## CC(=O)N[C@@H](CCCNC(=N)N)C(=O)N[C@H]1CCCNC(=O)CC[C@@H](C(N)=O)NC(=O)[C@H](Cc2c[nH]c3ccccc23)NC(=O)[C@H](CCCNC(=N)N)NC(=O)[C@@H](Cc2ccccc2)NC(=O)[C@@H]2CCCN2C1=O [Compound 5, Ac-Arg-cyclo(Orn-Pro-D-Phe-Arg-Trp-Glu)-NH2] (Ac-R[Orn]P[dF]RWE-NH2; lactam 2-7)
hMC4-R [1]; [9]
  Ki: 13 nM

## CC(=O)N[C@@H](CCCNC(=N)N)C(=O)N[C@H]1CC(=O)NCCCC[C@@H](C(N)=O)NC(=O)[C@H](Cc2c[nH]c3ccccc23)NC(=O)[C@H](CCCNC(=N)N)NC(=O)[C@@H](Cc2ccccc2)NC(=O)[C@@H]2CCCN2C1=O [Compound 3, Ac-Arg-cyclo(Asp-Pro-D-Phe-Arg-Trp-Lys)-NH2]
hMC4-R [1]; [10]
  Ki: 11 nM
hMC4-R [1]
  selectivity for MC4-R (binding against MC1-R, MC3-R and MC4-R): highly selective for MC4-R
[2]
  food intake: reduce food intake
  rate of change in body weight: decrease the rate of change in body weight
[2]; 0.3 mg/kg, 0-2 hour period
  decrease in food consumption compared to control: statistically significant
[2]; 0.3 mg/kg, 0-4 hour period
  decrease in food consumption compared to control: statistically significant
[2]; 0.3 mg/kg, 0-20 hour period
  decrease in food consumption compared to control: statistically significant
[2]; 1 mg/kg, 0-2 hour period
  decrease in food consumption compared to control: statistically significant
[2]; 1 mg/kg, 0-4 hour period
  decrease in food consumption compared to control: statistically significant
[2]; 1 mg/kg, 0-20 hour period
  decrease in food consumption compared to control: statistically significant
[3]; IV, 0.3 mg/kg
  average spontaneous erections per rat in one hour: 1.143±0.553 spontaneous erections per rat in one hour
[3]; IV, 1 mg/kg
  average spontaneous erections per rat in one hour: 1.286±0.421 spontaneous erections per rat in one hour
[3]; IV
  increase in observed spontaneous erections: not found to result in a statistically significant increase

## CC(=O)N[C@@H](CCCNC(=N)N)C(=O)N[C@H]1CCC(=O)NCCC[C@@H](C(=O)O)NC(=O)[C@H](Cc2c[nH]c3ccccc23)NC(=O)[C@H](CCCNC(=N)N)NC(=O)[C@@H](Cc2ccccc2)NC(=O)[C@H](COCc2ccccc2)NC1=O [Compound 6, Ac-Arg-cyclo(Glu-Ser(Bzl)-D-Phe-Arg-Trp-Orn)-OH]
hMC4-R [1]; [9]
  Ki: 13 nM

## CC(=O)N[C@@H](CCCNC(=N)N)C(=O)N[C@H]1CC(=O)NCCCC[C@@H](C(=O)O)NC(=O)[C@H](Cc2c[nH]c3ccccc23)NC(=O)[C@H](CCCNC(=N)N)NC(=O)[C@@H](Cc2ccccc2)NC(=O)[C@H](COCc2ccccc2)NC1=O [Compound 1, Ac-Arg-cyclo(Asp-Ser(Bzl)-D-Phe-Arg-Trp-Lys)-OH]
hMC4-R [1]; [10]
  Ki: 12 nM
hMC4-R [1]
  selectivity for MC4-R (binding against MC1-R, MC3-R and MC4-R): highly selective for MC4-R
hMC4-R [4]; HEK293, NDP-α-MSH is 100%, read-out: intrinsic activity at MC4-R
  Emax: 38%
hMC4-R [4]; NDP-α-MSH is 100%
  intrinsic activity at MC4-R: 47%
hMC4-R [4]; functional studies at MC4-R, average of several studies
  EC50: 2 nM
hMC4-R [4]; in words
  functional classification at MC4-R: partial agonist
[2]
  food intake: reduce food intake
  rate of change in body weight: decrease the rate of change in body weight
[2]; 0.3 mg/kg, 0-4 hour period
  decrease in food consumption compared to control: statistically significant
[2]; 1 mg/kg, 0-2 hour period
  decrease in food consumption compared to control: statistically significant
[2]; 1 mg/kg, 0-4 hour period
  decrease in food consumption compared to control: statistically significant
[2]; 1 mg/kg, 0-20 hour period
  decrease in food consumption compared to control: statistically significant
[3]; IV, 1 mg/kg
  average spontaneous erections per rat in one hour: 1.5±0.378 spontaneous erections per rat in one hour
[3]; IV
  increase in observed spontaneous erections: not found to result in a statistically significant increase

## CCCC[C@H](NC(C)=O)C(=O)N[C@H]1CC(=O)NCCCC[C@@H](C(=O)O)NC(=O)[C@H](Cc2c[nH]c3ccccc23)NC(=O)[C@H](CCCN=C(N)N)NC(=O)[C@@H](Cc2ccccc2)NC(=O)[C@H](Cc2cnc[nH]2)NC1=O [bremelanotide, Ac-Nle-cyclo(Asp-His-D-Phe-Arg-Trp-Lys)-OH, reference compound]
[3]; IV, 1 mg/kg
  average spontaneous erections per rat in one hour: 4.875±0.990 spontaneous erections per rat in one hour and 3.167±0.79 spontaneous erections per rat in one hour
[3]; positive control, dose not stated in this study
  average spontaneous erections per rat in one hour: 3.714±0.680 spontaneous erections per rat in one hour

## Ac-R[Orn][Ser(Bzl)][dF]RWE-OH (lactam 2-7; also: TFA salt) [cyclic peptide of Compound 7, Ac-Arg-cyclo(Orn-Ser(Bzl)-D-Phe-Arg-Trp-Glu)-OH]
[5]
  EC50 (cAMP accumulation, HEK-293 cells expressing hMC4-R): 2 nM
  intrinsic activity (cAMP accumulation, HEK-293 cells expressing hMC4-R): 47%

B1: cyclic peptide of Compound 3, Ac-Arg-cyclo(Asp-Pro-D-Phe-Arg-Trp-Lys)-NH2 (peptide)
peptide: RDPXRWK
modifications: N-terminal acetyl (Ac); D-Phe at position 4; side-chain lactam cyclo(Asp2-Lys7); C-terminal amide (-NH2)
notes: Synthetic cyclic heptapeptide; prepared as TFA salt; also called No. 3
[6]
  EC50 (cAMP accumulation, HEK-293 cells expressing hMC4-R): 10 nM
[7]
  Ki: 125 nM

B2: Ac-Arg-cyclo(Asp-Pro-D-Phe-Arg-trp-Lys)-OH (peptide)
peptide: RDPXRWK
modifications: not fully specified; N-terminal acetyl (Ac); D-Phe at position 4; side-chain lactam cyclo(Asp2-Lys7); C-terminal -OH; position 6 printed 'trp' in the table and in claim 5 but 'Trp' in the 2nd table
notes: Synthetic cyclic heptapeptide; also called Compound 8; No. 8
[8]
  Ki: 116 nM
